# Results: patent US10550097B2, “Selective 11-beta-hydroxysteroid dehydrogenase type 1 inhibitors” (DSM IP ASSETS B.V., priority 2015, dated 2020)
# Marks after values point to notes of the source that are not given here.
# Columns and labels:
# 11β-HSD1 [1] = biological target: T1, 11β-HSD1 (Homo sapiens, UniProt P28845); assay: 11β-HSD1 enzyme activity assay in cell lysates of transfected HEK-293 cells (HHH7 clone); assay type: biochemical; parameters: expressed in transfected cells; host or cells: HEK-293 (HHH7 clone), used as cell lysate; conditions: 200 nM cortisone, 450 μM NADPH, 10 min
# T1 sequence (P28845 whole entry): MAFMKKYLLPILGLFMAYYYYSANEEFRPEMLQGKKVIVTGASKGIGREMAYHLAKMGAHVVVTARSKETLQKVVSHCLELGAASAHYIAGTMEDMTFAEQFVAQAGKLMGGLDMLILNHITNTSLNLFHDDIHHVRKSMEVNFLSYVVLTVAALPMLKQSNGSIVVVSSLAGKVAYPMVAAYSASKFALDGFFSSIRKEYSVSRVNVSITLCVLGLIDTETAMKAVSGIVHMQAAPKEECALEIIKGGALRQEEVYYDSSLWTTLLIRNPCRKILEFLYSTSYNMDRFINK
# Method: Stably transfected human embryonic kidney (HEK-293) cells expressing 11β-HSD1 and hexose-6-phosphate dehydrogenase (the so called HHH7 clone) were cultivated for 48 h in Dulbecco's modified Eagle medium (DMEM) containing 4.5 g/L glucose, 10% fetal bovine serum, 100 U/mL penicillin, 0.1 mg/mL streptomycin, 1×MEM nonessential amino acids, and 10 mM HEPES buffer, pH 7.4. The cells were then washed with phosphate-buffered saline, and centrifuged for 4 min at 150×g. After removal of the supernatants, cell pellets were snap frozen on dry ice and stored at −80° C. until further use.
# Cell lysates were incubated for 10 min at 37° C. in TS2 buffer (100 mM NaCl, 1 mM EGTA, 1 mM EDTA, 1 mM MgCl2, 250 mM sucrose, 20 mM Tris-HCl, pH 7.4) in a final volume of 22.2 μL containing either solvent (0.1% DMSO) or the inhibitor at the respective concentration as indicated in Table 4 (see below).
# The steroids were separated by TLC, using methanol-chloroform (1:9) as solvent, followed by scintillation counting and calculation of substrate concentration. Data were collected from four independent measurements (standard deviation<10%).
# [2] = system: Human skin from abdominal plastic surgery; assay: Ex vivo: total dermal collagen after cortisone and cortisone/inhibitor treatment; assay type: cell-based; conditions: day 6; for Dermal collagen: cortisone/inhibitor treatment, topical daily, untreated set to 100%
# Method: Human skin from abdominal plastic surgery was used. The skin samples were cut in pieces of ˜8×3 mm (ø×thickness) and cultured up to day 6 in an air-liquid interface in a perforated ring of stainless steel in contact with a culture medium (modified Williams' E medium), while renewing the culture medium on day 3. Six skin specimens were used for each test sample. Each test sample (4 μl) was applied topically on top of each piece after cleaning of the surface with a cotton pad, which was subsequently covered with a 6 ø mm delivery membrane, this procedure was repeated daily. After 6 days skin sections were stained with Picrosirius Red histochemical staining, that dyes collagen fibers in purple-red. The papillary dermis was selected for the analysis. The different colors of the pictures were separated by using a deconvolution matrix. After deconvolution only pink-reddish images are used. Within these images the evaluation of dermal collagen was performed by estimating both color intensity and distribution with IMAGE J (NIH) analysis software. Two slides of each skin sample were processed by image acquisition and related analysis (i.e. 12 images for each treatment).
# [3] = Solubility in cosmetic oils from saturated mixtures (UPLC); assay type: physicochemical; conditions: 7 days at room temperature (22° C.); for Solubility in cosmetic oils: Cetiol B: Cetiol B (dibutyl adipate); for Solubility in cosmetic oils: DUB DIS: DUB DIS (diisopropyl sebacate); for Solubility in cosmetic oils: Finsolv EB: Finsolv EB (ethylhexyl benzoate)
# Method: H2O+0.02% TFA (A phase) and MeCN+0.02% TFA (B phase) were used as eluents, with a flow of 0.5 mL/min.
# The solubility of selected compounds was tested in the cosmetic oils Cetiol B (INCI name: dibutyl adipate from BASF Personal Care), DUB DIS (INCI name: diisopropyl sebacate from Stearinerie Dubois) and Finsolv EB ((INCI name: ethylhexyl benzoate from Innospec Performance Chemicals).
# Samples of about 1 mg of the compounds to be tested were exactly weighted and dissolved in 90% MeCN(aq) to provide 0.1% (1000 ppm) w/v stock solutions. Aliquots of the stock solutions were diluted with 90% MeCN(aq) to provide 10, 100 and 250 ppm diluted solutions, which were tested by UPLC.
# For each compound to be tested about 20 mg material were weighted in three microcentrifuge tubes and to each tube about 150 mg of one cosmetic oil were added, as reported in Table 5 below.
# After mixing on a Vortex mixer for 5 min, the respective samples were mixed on a waving platform shaker (20 cycles/min) for 7 days at room temperature (22° C.). After that time, the tubes were centrifuged for 5 min at 12000 rpm, 10 μL samples of the supernatant were diluted to 1.00 mL with MeOH, 100 μL of these solutions were diluted to 1.00 mL with 90% MeCN(aq) and subsequently analyzed by UPLC. The compound concentration in each solution was calculated using the respective calibration curve. From the compound concentration in the diluted solutions the concentrations of the respective parent mixtures was calculated accordingly.
# [4] = system: Human skin from abdominal plastic surgery; assay: Ex vivo: total dermal collagen III after UV-irradiation; assay type: cell-based; conditions: for Increase versus UV treatment (#2): day 6; for Dermal collagen III: daily UV 6 J/cm^2, day 6, non UV treated set to 100%
# Method: Human skin from abdominal plastic surgery classified as “Intermediate” (ITA° angle=42°) was used. The skin samples were cut in pieces of approx. 8×3 mm (0×thickness) and cultured up to day 6 in an air-liquid interface in a perforated ring of stainless steel in contact with a culture medium (modified Williams' E medium, while renewing the culture medium on day 3. Six skin specimens were used for each test sample. Each test sample (4 μl) was topically applied on top of each piece after gentle cleaning of the surface with a cotton pad, which was subsequently covered with a 6 ø mm delivery membrane, this procedure was repeated daily. The samples were irradiated daily with 80% of the Biological effective dose for daylight (i.e. 6 J/cm^2) using an adopted BIO-SUN system (Vilber Lourmat). At day 6 twelve skin sections were immunostained with mouse monoclonal anti-collagen III antibody (Sigma cat #c7805). The papillary dermis was selected for the analysis. The evaluation was performed by estimating both color intensity and distribution with IMAGE J (NIH) analysis software. Two slides of each skin sample have been processed by image acquisition and related analysis (i.e. 12 images for each treatment).
# 11β-HSD1 [5] = biological target: T1, 11β-HSD1; assay: Human keratinocytes assay: 11β-HSD1 activity (cortisone to cortisol); assay type: cell-based; conditions: 48 h
# Method: Cell Culture: Primary human skin keratinocytes obtained from CelINTec advanced Cell Systems were maintained in CnT-PR medium at 37° C. in a humidified 5% CO2-air atmosphere. Cells were subcultured before reaching confluence.
# Assessment of 11β-HSD1 activity: Human primary keratinocytes were pre-cultured in complete culture media (CnT-PR, CelINTec) to 90% of confluence. Subsequently cells were washed twice with PBS-buffer to remove remaining corticosteroids and media were exchanged to custom made hydrocortisone-free media.
# Calculation: % remaining 11β-HSD1 activity=(cortisol-level with inhibitor/cortisol-level without inhibitor)*100%
Structure (SMILES),11β-HSD1 Remaining activity [% of control] (11β-HSD1 [1]; inhibitor 100 nM),Dermal collagen ([2]; 10 μM in DMSO) [%],Increase versus cortisone (#2) ([2]; 10 μM in DMSO),Dermal collagen ([2]; 100 μM in DMSO) [%],Increase versus cortisone (#2) ([2]; 100 μM in DMSO),Dermal collagen ([2]; 200 μM in DMSO) [%],Increase versus cortisone (#2) ([2]; 200 μM in DMSO),Solubility in cosmetic oils: Cetiol B [3] [%^b],Solubility in cosmetic oils: DUB DIS [3] [%^b],Solubility in cosmetic oils: Finsolv EB [3] [%^b],Increase versus UV treatment (#2) ([4]; 10 μM in DMSO),Dermal collagen III ([4]; 10 μM in DMSO) [%],Increase versus UV treatment (#2) ([4]; 100 μM in DMSO),Dermal collagen III ([4]; 100 μM in DMSO) [%],remaining activity at 0.001 µM (11β-HSD1 [5]) [%],remaining activity at 0.00316 µM (11β-HSD1 [5]) [%],remaining activity at 0.01 µM (11β-HSD1 [5]) [%],remaining activity at 0.03162 µM (11β-HSD1 [5]) [%],remaining activity at 0.1 µM (11β-HSD1 [5]) [%],11β-HSD1 Remaining activity [% of control] (11β-HSD1 [1]; inhibitor 1 μM)
"Cc1ccc(-c2cccc(C(=O)N3CCC(C)CC3)c2)cc1F [II-d, (3′-fluoro-4′-methyl-[1,1′-biphenyl]-3-yl)(4-methylpiperidin-1-yl)methanone]",45 % of control,,,,,,,,,,,,,,,,,,,
"Cc1ccc(-c2cccc(C(=O)N3CCC(C)CC3)c2)cn1 [II-a, (4-methylpiperidin-1-yl)(3-(6-methylpyridin-3-yl)phenyl)methanone]",,94,+22%,108,+40%,114,+48%,≥ 13.2,≥ 10.6,≥ 10.2,+5%,84,+43%,114,,,,,,
"Cc1ccc(-c2cccc(C(=O)N3CCCCCC3)c2)cc1F [IV-a, azepan-1-yl(3′-fluoro-4′-methyl-[1,1′-biphenyl]-3-yl)methanone]",,96,+25%,97,+26%,86,+12%,,,,+13%,90,+21%,97,74,45,22,8,2,
"O=C(c1cccc(-c2ccccc2)c1)N1CCCCCC1 [IV-f, [1,1′-biphenyl]-3-yl(azepan-1-yl)methanone]",,103,+34%,103,+34%,93,+21%,≥ 10.6,≥ 10.2,≥ 10.3,+6%,85,+33%,106,83,73,52,28,10,
"Cc1ccc(-c2cccc(C(=O)N3CCCCCC3)c2)cn1 [IV-e, azepan-1-yl(3-(6-methylpyridin-3-yl)phenyl)methanone]",31 % of control,103,+34%,101,+31%,96,+25%,,,,,,,,,,,,,
"Cc1ccc(-c2cccc(C(=O)N3CC(C)OC(C)C3)c2)cc1 (stereo not drawn) [III-c, (2,6-dimethylmorpholino) (4′-methyl-[1,1′-biphenyl]-3-yl)methanone]",60 % of control,,,,,,,,,,,,,,,,,,,3 % of control
"Cc1ccc(-c2cccc(C(=O)N3CCC(C)CC3)c2)cc1 [II-f, (4′-methyl-[1,1′-biphenyl]-3-yl)(4-methylpiperidin-1-yl)methanone]",,,,,,,,,,,,,,,,,,,,2 % of control
